The values below come from patent US20080026992A1, “Tyrosine Phosphorylation of Cdk Inhibitor Proteins of the Cip/Kip Family” (priority 2003, published 2008).

Holding throughout (format): cell-based, human
The subject of test [1] is Lyn. The test can be described thus: p27 Tyr-88 phosphorylation in 293T cells transfected with Lyn (Western blot, anti-phospho-Y88). To be noted: 10 μM STI-571. As for the experimental part: (§1) HA-tagged p27 was transfected in 293T cells with a Bcr-Abl or Lyn encoding plasmids. […] Equal amounts of cell lysates were analyzed by Western blotting with monoclonal anti-phospho-Y88 antibodies and HRP-conjugated anti-p27 antibodies as indicated. b. […] Western blot analysis was performed with monoclonal anti-phospho-Y88 and HRP-conjugated anti-p27 antibodies. c. […] Cells (1×10^7/ml) were labeled with a ^35S labeled methionine/cysteine mix for 1 hour, and subsequently incubated in the absence of radioactivity for the indicated times. p27 was immunoprecipitated using anti-p27 antibodies. The labeled protein was visualized by autoradiography. The intensity of the bands was determined using a PhosphorImager and is expressed as a fraction of the time point 0. […] One representative experiment is shown.

For test [2], the system named is K562 cells. The test is described as follows: p27 protein level in K562 cells (Western blot). As to conditions: 2 or 10 μM STI-571 for 16 hours. As for the experimental part:
as §1
(§2) Tyr-88 phosphorylation of p27 in a Bcr-Abl transformed tumor cell line was investigated next. K562 chronic myelogenous leukaemia cells express p210 Bcr-Abl kinase that is sensitive to inhibition with ST-571.

Test [3] concerns K562 cells. The test is described as follows: p27 stability in K562 cells (35S pulse-chase). To be noted: 10 μM STI-571 for 16 hours. As for the experimental part:
as §1, §2

Test [4] deals with K562 cells. The test can be described thus: Cell cycle analysis by flow cytometry (BrdU/PI) of transfected K562 CML cells. As to conditions: moderate expression, 48 hours after transfection, GFP-sorted. As to the method:
FIG. 9: p27 Y88F arrests K562 CML cells in G1 phase of the cell cycle. K562 CML cells were transfected with GFP and either 25 ug of p27 or 25 ug of p27-Y88F expression vector. 48 hours after transfection, cells with similar GFP expression level were isolated by flow cytometry cell sorting and the cell cycle distribution of these cells was determined using BrdU incorporation and PI staining. The distribution of these cells in the cell cycle phases is shown. Only p27-Y88F expression leads to an accumulation of G1 phase cells and reduced cells in S-phase.
The percentage of cells in the G1, S and G2/M phases of the cell cycle was determined by two dimensional flow cytometry. The DNA content was determined by staining DNA with the intercalating dye propidium iodide and quantifying the cell fractions with differing DNA content by flow cytometry. In addition, cells in S-phase were labelled with the nucleotide analog bromo 5-bromo-2′-deoxyuridine (BrdU), which is incorporated into newly synthesized DNA. […] Cells were analyzed on FACS ([…] Dickinson) flow cytometer using the CellQuest software. […]

As to `Cc1ccc(NC(=O)c2ccc(CN3CCN(C)CC3)cc2)cc1Nc1nccc(-c2cccnc2)n1` [STI-571, 4-[(4-Methyl-1-piperazinyl)methyl]-N-[4-methyl-3-[[4-(3-pyridinyl)-2-pyrimidinyl]amino]-phenyl] benzamide methane sulfonate], the “Tyr-88 phosphorylation of p27 by Lyn” value in test [1] is recorded as “no effect”. In addition, the p27 protein level entry in test [2] was “dramatic increase”. In addition, the p27 stability result in test [3] is “increase”.
In the case of “p27-Y88F: mutant of p27 where tyrosine 88 is exchanged to phenylalanine”, in test [4], the S-phase entry entry is “impaired” and the “effect on cell cycle / accumulation of cells in G1 phase” value is reported as “increasing cells accumulating in G1 phase”.
